pIC50: −log10 of the molar value.
Experiments:
[1] = biological target: Phosphatidylinositol 4,5-bisphosphate 3-kinase catalytic subunit alpha isoform (Homo sapiens, UniProt P42336); assay: Inhibition of p110alpha
[2] = biological target: Phosphatidylinositol 4,5-bisphosphate 3-kinase catalytic subunit beta isoform (Homo sapiens, UniProt P42338); assay: Inhibition of p110beta
[3] = biological target: Phosphatidylinositol 4,5-bisphosphate 3-kinase catalytic subunit gamma isoform (Homo sapiens, UniProt P48736); assay: Inhibition of p110gamma
Sequence of Phosphatidylinositol 4,5-bisphosphate 3-kinase catalytic subunit gamma isoform (P48736 whole entry, canonical isoform): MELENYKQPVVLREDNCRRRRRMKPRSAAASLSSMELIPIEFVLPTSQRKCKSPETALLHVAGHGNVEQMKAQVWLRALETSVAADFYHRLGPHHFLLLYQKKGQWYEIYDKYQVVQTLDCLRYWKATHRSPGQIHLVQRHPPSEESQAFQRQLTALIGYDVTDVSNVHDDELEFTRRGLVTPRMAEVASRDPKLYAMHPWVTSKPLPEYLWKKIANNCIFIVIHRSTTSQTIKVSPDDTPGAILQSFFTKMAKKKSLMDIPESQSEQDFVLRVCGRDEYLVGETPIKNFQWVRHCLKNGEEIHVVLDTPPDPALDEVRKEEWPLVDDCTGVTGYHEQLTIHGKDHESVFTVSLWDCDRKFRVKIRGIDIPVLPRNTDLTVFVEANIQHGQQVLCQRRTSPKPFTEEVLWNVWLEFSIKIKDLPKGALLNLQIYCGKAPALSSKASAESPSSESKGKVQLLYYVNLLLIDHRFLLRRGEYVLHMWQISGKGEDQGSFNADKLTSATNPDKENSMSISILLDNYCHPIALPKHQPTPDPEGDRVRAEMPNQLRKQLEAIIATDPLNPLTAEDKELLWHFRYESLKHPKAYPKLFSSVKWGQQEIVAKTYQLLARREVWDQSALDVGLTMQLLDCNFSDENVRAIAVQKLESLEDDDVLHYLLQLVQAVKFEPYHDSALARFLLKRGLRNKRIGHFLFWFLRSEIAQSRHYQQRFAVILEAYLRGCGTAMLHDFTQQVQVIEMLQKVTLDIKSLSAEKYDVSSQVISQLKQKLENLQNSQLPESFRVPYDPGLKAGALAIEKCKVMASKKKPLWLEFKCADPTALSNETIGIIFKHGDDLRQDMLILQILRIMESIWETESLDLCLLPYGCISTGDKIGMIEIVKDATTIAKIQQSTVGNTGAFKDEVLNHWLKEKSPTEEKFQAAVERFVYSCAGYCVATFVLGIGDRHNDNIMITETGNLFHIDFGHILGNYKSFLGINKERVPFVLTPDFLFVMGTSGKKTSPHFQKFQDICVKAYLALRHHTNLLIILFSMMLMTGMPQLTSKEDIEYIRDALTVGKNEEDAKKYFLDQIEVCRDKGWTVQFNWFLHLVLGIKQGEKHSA

Sequence of Phosphatidylinositol 4,5-bisphosphate 3-kinase catalytic subunit beta isoform (P42338 whole entry, canonical isoform): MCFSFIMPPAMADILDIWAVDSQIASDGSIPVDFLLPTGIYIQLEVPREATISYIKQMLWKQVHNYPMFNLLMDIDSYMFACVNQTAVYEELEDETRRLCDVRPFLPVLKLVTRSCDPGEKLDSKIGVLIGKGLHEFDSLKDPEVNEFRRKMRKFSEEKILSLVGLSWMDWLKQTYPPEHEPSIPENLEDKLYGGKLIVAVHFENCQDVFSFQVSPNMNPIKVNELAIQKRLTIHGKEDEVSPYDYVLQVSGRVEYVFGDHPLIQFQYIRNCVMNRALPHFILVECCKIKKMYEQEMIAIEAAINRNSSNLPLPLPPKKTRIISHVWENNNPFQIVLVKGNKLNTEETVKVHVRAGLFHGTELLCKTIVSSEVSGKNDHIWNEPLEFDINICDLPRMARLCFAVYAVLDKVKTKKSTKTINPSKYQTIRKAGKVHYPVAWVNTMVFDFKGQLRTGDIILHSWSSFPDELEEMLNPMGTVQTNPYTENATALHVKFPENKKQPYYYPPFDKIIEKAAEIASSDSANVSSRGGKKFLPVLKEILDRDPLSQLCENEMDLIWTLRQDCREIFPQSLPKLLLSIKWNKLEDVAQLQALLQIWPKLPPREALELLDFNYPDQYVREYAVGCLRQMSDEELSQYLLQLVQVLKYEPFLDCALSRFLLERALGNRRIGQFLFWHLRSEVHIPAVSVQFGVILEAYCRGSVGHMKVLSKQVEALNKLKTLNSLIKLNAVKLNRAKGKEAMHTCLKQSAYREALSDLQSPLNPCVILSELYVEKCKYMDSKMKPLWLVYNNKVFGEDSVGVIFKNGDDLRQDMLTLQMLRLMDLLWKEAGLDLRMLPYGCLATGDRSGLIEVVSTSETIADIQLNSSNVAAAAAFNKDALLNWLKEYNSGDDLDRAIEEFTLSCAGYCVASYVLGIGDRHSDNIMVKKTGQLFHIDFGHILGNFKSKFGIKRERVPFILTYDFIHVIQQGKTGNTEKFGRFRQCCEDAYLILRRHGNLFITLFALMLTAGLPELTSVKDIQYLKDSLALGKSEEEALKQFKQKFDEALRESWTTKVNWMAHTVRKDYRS
Sequence of Phosphatidylinositol 4,5-bisphosphate 3-kinase catalytic subunit alpha isoform (P42336 whole entry, canonical isoform): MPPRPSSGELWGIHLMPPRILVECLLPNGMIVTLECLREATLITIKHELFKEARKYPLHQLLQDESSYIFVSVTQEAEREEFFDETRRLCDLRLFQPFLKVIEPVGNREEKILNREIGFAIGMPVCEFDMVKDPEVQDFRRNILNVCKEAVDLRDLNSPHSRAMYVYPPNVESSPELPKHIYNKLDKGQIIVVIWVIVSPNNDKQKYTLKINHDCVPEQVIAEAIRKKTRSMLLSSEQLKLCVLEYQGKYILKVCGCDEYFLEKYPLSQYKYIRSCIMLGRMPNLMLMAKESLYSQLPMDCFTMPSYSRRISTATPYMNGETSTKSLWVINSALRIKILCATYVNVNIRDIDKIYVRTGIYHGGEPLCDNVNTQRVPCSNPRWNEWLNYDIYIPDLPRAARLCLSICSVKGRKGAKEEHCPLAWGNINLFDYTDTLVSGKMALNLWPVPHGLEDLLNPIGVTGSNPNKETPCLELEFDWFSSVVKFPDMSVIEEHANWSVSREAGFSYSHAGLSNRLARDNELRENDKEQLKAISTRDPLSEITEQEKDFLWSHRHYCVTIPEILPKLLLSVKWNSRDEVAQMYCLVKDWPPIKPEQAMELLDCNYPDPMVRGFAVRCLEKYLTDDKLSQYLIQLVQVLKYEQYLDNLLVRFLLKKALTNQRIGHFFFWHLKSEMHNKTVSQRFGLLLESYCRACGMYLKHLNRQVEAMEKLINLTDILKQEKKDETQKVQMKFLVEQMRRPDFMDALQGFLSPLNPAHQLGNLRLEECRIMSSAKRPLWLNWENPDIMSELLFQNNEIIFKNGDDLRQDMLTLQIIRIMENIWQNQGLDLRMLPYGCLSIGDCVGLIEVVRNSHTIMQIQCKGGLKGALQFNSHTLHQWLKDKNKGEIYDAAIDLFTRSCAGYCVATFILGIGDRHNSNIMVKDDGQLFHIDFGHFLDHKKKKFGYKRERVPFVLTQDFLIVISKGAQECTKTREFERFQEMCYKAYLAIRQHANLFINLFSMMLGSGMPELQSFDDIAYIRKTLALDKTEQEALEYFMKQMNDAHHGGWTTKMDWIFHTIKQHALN

Compound | pIC50 [1] | pIC50 [2] | pIC50 [3]
COc1cc(Nc2nc3ccccc3nc2NS(=O)(=O)c2ccc(F)cc2)cc(OC)c1 | 6.40 | 5.00 | 5.00
CC(=O)Nc1nc2ccc(-c3nn(Cc4cc5ccccc5nc4N4CCN(C)CC4)c4ncnc(N)c34)cc2s1 | 6.10 | 7.64 | 6.73
CN1CCN(c2nc3ccccc3cc2Cn2nc(-c3ccc4nc(N)sc4c3)c3c(N)ncnc32)CC1 | 6.86 | 8.05 | 8.40
COc1ccccc1-n1c(SCC(=O)Nc2ccc3nccnc3c2)nc2c(c1=O)CCCC2 | 5.46 | 5.37 | 4.70

These reach a higher pIC50 [1]. Values come first.

pIC50 [1] | pIC50 [2] | pIC50 [3] | Compound
7.47 | 6.50 | 7.16 | CC(C)n1nc(C#Cc2cccc(O)c2)c2c(N)ncnc21
7.28 | 6.18 | 6.95 | CC(C)n1nc(C#Cc2cccnc2)c2c(N)ncnc21

— ChEMBL document CHEMBL1212808, “The p110 delta structure: mechanisms for selectivity and potency of new PI(3)K inhibitors” (Nat Chem Biol, 2010)
